Laboratory results reported in ChEMBL document CHEMBL1127977, “Benzolactam growth hormone secretagogues: Carboxamides as replacements for the 2-tetrazole moiety of L-692,429” (1994).

Species on record: Rattus norvegicus
Assay: Tested in vitro for growth hormone release in rat pituitary cells
Assay type: functional
Details: Pituitary gland cell, read-out: ED50 (the source's name)

`CC(C)(N)CC(=O)N[C@@H]1CCc2ccccc2N(Cc2ccc(-c3ccccc3C(=O)NCCCCCO)cc2)C1=O` and `CC(C)(N)CC(=O)N[C@@H]1CCc2ccccc2N(Cc2ccc(-c3ccccc3C(=O)NCCCCO)cc2)C1=O` are the same in EC50: 10 nM for the first, 10 nM for the second.

First: CCN(CC)C(=O)c1ccccc1-c1ccc(CN2C(=O)[C@H](NC(=O)CC(C)(C)N)CCc3ccccc32)cc1
Second: CCNC(=O)c1ccccc1-c1ccc(CN2C(=O)[C@H](NC(=O)CC(C)(C)N)CCc3ccccc32)cc1
The EC50 of the first is 22-fold higher: 2000 nM for the first, 90 nM for the second.

Going from `CC(C)(N)CC(=O)N[C@@H]1CCc2ccccc2N(Cc2ccc(-c3ccccc3C(=O)NCc3ccc(O)cc3)cc2)C1=O` to `COc1ccc(CNC(=O)c2ccccc2-c2ccc(CN3C(=O)[C@H](NC(=O)CC(C)(C)N)CCc4ccccc43)cc2)cc1`, the EC50 rises from 300 nM to 2000 nM (6.7-fold). The first is the more potent here.

First: CC(C)(N)CC(=O)N[C@@H]1CCc2ccccc2N(Cc2ccc(-c3ccccc3C(=O)NCCO)cc2)C1=O
Second: CC(C)(N)CC(=O)N[C@@H]1CCc2ccccc2N(Cc2ccc(-c3ccccc3C(=O)NCCCO)cc2)C1=O
The EC50 of the first is 7.5-fold higher: 3000 nM for the first, 400 nM for the second. The second is the more potent here.

First: CC(C)(N)CC(=O)N[C@@H]1CCc2ccccc2N(Cc2ccc(-c3ccccc3-c3nn[nH]n3)cc2)C1=O
Second: C[C@@H](O)CNC(C)(C)CC(=O)N[C@@H]1CCc2ccccc2N(Cc2ccc(-c3ccccc3-c3nn[nH]n3)cc2)C1=O [L-692585]
The EC50 of the first is 20-fold higher: 60 nM for the first, 3 nM for the second.

First: CC(C)(N)CC(=O)N[C@@H]1CCc2ccccc2N(Cc2ccc(-c3ccccc3C(=O)NCc3ccccc3)cc2)C1=O
Second: CC(C)(N)CC(=O)N[C@@H]1CCc2ccccc2N(Cc2ccc(-c3ccccc3C(N)=O)cc2)C1=O
The EC50 of the first is 11-fold higher: 900 nM for the first, 80 nM for the second. The second is the more potent here.

First: CCCCCNC(=O)c1ccccc1-c1ccc(CN2C(=O)[C@H](NC(=O)CC(C)(C)N)CCc3ccccc32)cc1
Second: C[C@@H](O)CNC(C)(C)CC(=O)N[C@@H]1CCc2ccccc2N(Cc2ccc(-c3ccccc3C(N)=O)cc2)C1=O
The EC50 of the first is higher: greater than 1000 nM for the first, 4 nM for the second. The second is the more potent here.

Going from `CC(C)(CC(=O)N[C@@H]1CCc2ccccc2N(Cc2ccc(-c3ccccc3C(N)=O)cc2)C1=O)NC[C@H](O)CO` to `CC(C)(CC(=O)N[C@@H]1CCc2ccccc2N(Cc2ccc(-c3ccccc3-c3nn[nH]n3)cc2)C1=O)NC[C@H](O)CO`, the EC50 rises from 3 nM to 10 nM (3.3-fold).
